Reference: patent US10076540B1, “Medication enhancement using hydrogen” (Perricone Hydrogen Water Company, LLC, priority 2017, dated 2018)

Assay: Time until the effects of THC are felt after ingestion of a hydrogen-containing composition (uptake rate)
Format: in vivo
Details: human subject; drunk composition of liquid such as water, dissolved hydrogen and THC
Text: In some embodiments, the composition comprising hydrogen and an active pharmaceutical agent may have an uptake rate that is at least 2, at least 3, at least 5, at least 10, at least 20, at least 30, or at least 50 times the uptake rate of the active pharmaceutical agent alone by a subject. In certain embodiments, composition comprising hydrogen and an active pharmaceutical agent may have an uptake rate that is less than or equal to 100, less than or equal to 50, less than or equal to 30, less than or equal to 20, less than or equal to 10, less than or equal to 5, or less than or equal to 3 times the uptake rate of the active pharmaceutical agent alone by the subject. Combinations of the above-referenced ranges are also possible (e.g., at least 2 or less than or equal to 100 times). Other ranges are also possible. The uptake rate of a composition (or active pharmaceutical agent) may be determined by administering the composition (or active pharmaceutical agent) to a subject and determining the amount of time required to observe a pharmacological effect (e.g., a psychotropic effect, a reduction in disease and/or clinical symptom) of the active pharmaceutical agent on the subject.
A composition such as described herein is provided to a subject, such as a human subject. […]

With CCCCCc1cc(O)c2c(c1)OC(C)(C)[C@@H]1CCC(C)=C[C@@H]21 [THC, tetrahydrocannabinol] the “time after ingestion until the effects of the THC are felt by the subject” value was “less than 5 minutes”.
